≈ marks a conversion by molar mass, not a printed value.
Legend:
[1] = tested on: in vitro grown Mycobacteria (M. tuberculosis); assay: QUM: Quantification of in vitro grown Mycobacteria (in vitro growth fluorescence assay); format: cell-based; conditions: MIC, 80% bacterial growth inhibition, in vitro growth; for MIC: Mycobacterium tuberculosis, read-out: QUM
In short: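 Mycobacterium tuberculosis grown in vitro was quantified by fluorescence across compound dose responses. MIC is defined as the minimum concentration producing 80% growth inhibition.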

[2] = tested on: M. tuberculosis inside the host macrophage; assay: QIM: Quantification of Intracellular Mycobacteria (intracellular growth assay, phenotypic cell-based); conditions: MIC, 80% bacterial growth inhibition, intracellular growth; for MIC: Mycobacterium tuberculosis, read-out: QIM
In short: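 Phenotypic high-content assay measuring M. tuberculosis multiplication inside host macrophages, run as dose response. MIC is the minimum compound concentration giving 80% bacterial growth inhibition.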

SMILES	MIC [1]	MIC [2]	QUM (μM) [1]	QIM (μM) [2]
CCc1nc2cc(Cl)ccn2c1C(=O)NCc1ccc2[nH]c(-c3ccc(OC(F)(F)F)cc3)nc2c1 [Compound 205, 7-Chloro-2-ethyl-N-((2-(4-(trifluoromethoxy)phenyl)-1H-benzo[d]imidazol-5-yl)methyl) imidazo[1,2-a]pyridine-3-carboxamide]	> 20 µM	> 20 µM		
Cc1nc2cccc(C)n2c1C(=O)NCc1ccccc1 [Compound 33, N-Benzyl-2,5-dimethylimidazo[1,2-a]pyridine-3-carboxamide]	> 20 µM	> 20 µM		
CC(C)c1nc2ccccn2c1C(=O)NCc1ccc(-c2ccccc2)cc1 [Compound 52, N-(Biphenyl-4-ylmethyl)-2-isopropylimidazo[1,2-a]pyridine-3-carboxamide]	1 to 20 µM (≈ 0.369 to 7.39 µg/mL)	1 to 20 µM (≈ 0.369 to 7.39 µg/mL)		
Cc1nc2ccccn2c1C(=O)Nc1ccc(Oc2ccccc2)cc1 [Compound 6, 2-Methyl-N-(4-phenoxyphenyl)imidazo[1,2-a]pyridine-3-carboxamide]	> 20 µM	> 20 µM		
CCc1nc2ccc(Cl)cn2c1C(=O)NCc1ccc(N2CCCCC2C)cc1 (stereo not shown) [Compound 272, 6-chloro-2-ethyl-N-(4-(2-methylpiperidin-1-yl)benzyl)imidazo[1,2-a]pyridine-3-carboxamide]	< 1 µM	< 1 µM		
CCc1nc2cc(Cl)ccn2c1C(=O)NCc1ccc2oc(-c3ccc(OC(F)(F)F)cc3)nc2c1 [Compound 208, 7-Chloro-2-ethyl-N-((2-(4-(trifluoromethoxy)phenyl)benzo[d]oxazol-5-yl)methyl)imidazo[1,2-a]pyridine-3-carboxamide]	< 1 µM	< 1 µM		
CCc1nc2cc(Cl)c(Cl)cn2c1C(=O)NCc1ccc(N2CCN(c3ccc(F)cc3)CC2)cc1 [Compound 180, 6,7-Dichloro-2-ethyl-N-(4-(4-(4-fluorophenyl)piperazin-1-yl)benzyl)imidazo[1,2-a]pyridine-3-carboxamide]	< 1 µM	< 1 µM		
CCc1nc2cc(Cl)ccn2c1C(=O)NCc1ccc(N2CCC(Oc3ccc(OC(F)(F)F)cc3)CC2)cc1 [Compound 140, 7-Chloro-2-ethyl-N-(4-(4-(4-(trifluoromethoxy)phenoxy)piperidin-1-yl)benzyl)imidazo-[1,2-a]pyridine-3-carboxamide]	< 1 µM	< 1 µM		
CCc1nc2ccc(Cl)cn2c1C(=O)NCc1ccn(-c2ccc(OC(F)(F)F)cc2)n1 [Compound 231, 6-Chloro-2-ethyl-N-((1-(4-(trifluoromethoxy)phenyl)-1H-pyrazol-3-yl)methyl) imidazo[1,2-a]pyridine-3-carboxamide]	< 1 µM	< 1 µM		
CCc1nc2cc(Cl)ccn2c1C(=O)NCc1ccn(-c2ccc(OC(F)(F)F)cc2)n1 [Compound 232, 7-Chloro-2-ethyl-N-((1-(4-(trifluoromethoxy)phenyl)-1H-pyrazol-3-yl)methyl) imidazo[1,2-a]pyridine-3-carboxamide]			++ (++ indicates between 1-20 uM)	++ (++ indicates between 1-20 uM)
CCc1nc2ccc(C)cn2c1C(=O)NCc1ccc(-c2ccccc2)cc1 [Compound 62, N-(Biphenyl-4-ylmethyl)-2-ethyl-6-methylimidazo[1,2-a]pyridine-3-carboxamide]	< 1 µM	< 1 µM		
CCc1nc2cc(Cl)ccn2c1C(=O)NCc1ccc2[nH]c(CN3CCOCC3)nc2c1 [Compound 206, 7-Chloro-2-ethyl-N-((2-(morpholinomethyl)-1H-benzo[d]imidazol-5-yl)methyl) imidazo[1,2-a]pyridine-3-carboxamide]	> 20 µM	> 20 µM		
CCc1nc2ccccn2c1C(=O)NCc1ccc(OCC(C)C)cc1 [Compound 61, 2-Ethyl-N-(4-isobutoxybenzyl)imidazo[1,2-a]pyridine-3-carboxamide]	< 1 µM	< 1 µM		
CCc1nc2cc(Cl)ccn2c1C(=O)NCc1ccc(-c2ccncc2)cc1 [Compound 134, 7-Chloro-2-ethyl-N-(4-(pyridin-4-yl)benzyl)imidazo[1,2-a]pyridine-3-carboxamide]	1 to 20 µM (≈ 0.391 to 7.82 µg/mL)	< 1 µM		

Source: patent US8865734B2 (priority 2010, dated 2014)
